Article PMC314469, “Protein Interaction Networks by Proteome Peptide Scanning” (PLoS Biology, 2004)

Tested on: Myo5 SH3 domain
Test: SPOT analysis of cellulose-bound peptides (WISE), Myo5 SH3 domain (Dataset S4)
Assay type: binding, Saccharomyces cerevisiae
Settings: for The normalized value in BLU units: Myo5 SH3 domain
[1] = SPOT analysis of cellulose-bound 14-mer yeast proteome peptides, normalized value, mean where the peptide was synthesized more than once
[2] = SPOT analysis of membrane-bound peptides, normalized value (see methods)
[3] = SPOT analysis of cellulose-bound peptides probed with Myo5 SH3 domain, normalized value
[4] = SPOT analysis of membrane-synthesized peptides probed with Myo5 SH3 domain, normalized value

KEVDLTRPSAPSEP
The normalized value in BLU units [1]: 132.2 BLU

KFDAKGRPIPPHPD
The normalized value in BLU units [2]: 53.5 BLU

KFFKHLYPAIPILD
The normalized value in BLU units [1]: 217.0 BLU

KFFKREYPDIPMIA
The normalized value in BLU units [2]: 154.6 BLU

KFLIHNEPIDPNDR
The normalized value in BLU units (SPOT analysis, Myo5 SH3) [3]: 121.7 BLU

KFPLMDKPSIPTLR
The normalized value in BLU units (SPOT analysis, Myo5 SH3) [3]: 431.6 BLU

KFRQMFKPLAPNTR
The normalized value in BLU units [1]: 1217.4 BLU

KFTDMLDPEKPNVI
The normalized value in BLU units [1]: 262.4 BLU

KFTDMQVPKGPVCP
The normalized value in BLU units (SPOT analysis, Myo5 SH3) [3]: 197.0 BLU

KFVIHNEPIDPSDK
The normalized value in BLU units [1]: 46.7 BLU

KGVLKEYPMRPYGS
The normalized value in BLU units [1]: 116.8 BLU

KHEPKKSPTTPALA
The normalized value in BLU units (SPOT analysis, Myo5 SH3) [4]: 726.2 BLU

KIIKKCSPSVPKEE
The normalized value in BLU units [2]: 242.5 BLU

KITKKLGPKLPKAS
The normalized value in BLU units (SPOT analysis, Myo5 SH3) [4]: 680.7 BLU

KIVERGPPYPPDLR
The normalized value in BLU units [2]: 137.7 BLU

KIVRRDYPSTPVIV
The normalized value in BLU units [1]: 366.1 BLU

KKHDKLHPNYPSVK
The normalized value in BLU units (SPOT analysis, Myo5 SH3) [4]: 406.8 BLU

KKHDKLYPKYPSVK
The normalized value in BLU units (SPOT analysis, Myo5 SH3) [4]: 339.6 BLU

KKIAKGDPKIPMQN
The normalized value in BLU units [2]: 720.5 BLU

KKIIKDVPGTPSDK
The normalized value in BLU units [2]: 162.7 BLU

KKKKKNGPGAPQGY
The normalized value in BLU units [2]: 328.8 BLU

KKNDRPSPLKPIQH
The normalized value in BLU units [2]: 340.9 BLU

KKNKKKVPLNPLAK
The normalized value in BLU units [1]: 522.6 BLU

KKNPKKSPMGPQGA
The normalized value in BLU units (SPOT analysis, Myo5 SH3) [4]: 1007.5 BLU

KKVIRNYPGHPEGT
The normalized value in BLU units (SPOT analysis, Myo5 SH3) [4]: 417.8 BLU

KLAILTCPFEPPKP
The normalized value in BLU units [1]: 173.2 BLU

KLALHQYPNFPSEG
The normalized value in BLU units [1]: 130.3 BLU

KLAPLNCPSLPTTN
The normalized value in BLU units [1]: 211.6 BLU

KLDPLGEPFDPNKH
The normalized value in BLU units [1]: 275.7 BLU

KLEDLNEPLSPWIS
The normalized value in BLU units (SPOT analysis, Myo5 SH3) [3]: 71.1 BLU

KLFVLLPPIDPKDG
The normalized value in BLU units [1]: 258.2 BLU

KLGRFTNPQQPRED
The normalized value in BLU units (SPOT analysis, Myo5 SH3) [3]: 227.3 BLU

KLHEKYFPDLPKEV
The normalized value in BLU units [2]: 110.4 BLU

KLKIKILPEQPQLE
The normalized value in BLU units [2]: 261.3 BLU

KLKSLNLPQLPPPK
The normalized value in BLU units [1]: 674.9 BLU

KLNCLQIPHLPPSV
The normalized value in BLU units (SPOT analysis, Myo5 SH3) [3]: 349.8 BLU

KLNKRVLPSKPKKS
The normalized value in BLU units [2]: 918.8 BLU

KLPDLKLPPSPVPS
The normalized value in BLU units [1]: 231.2 BLU

KLPKKFPPPTPLLE
The normalized value in BLU units [2]: 19656.3 BLU

KLPKLNVPLNPKGK
The normalized value in BLU units (SPOT analysis, Myo5 SH3) [3]: 304.7 BLU

KLPQLPPPPPPPPP
The normalized value in BLU units (SPOT analysis, Myo5 SH3) [3]: 54143.7 BLU

KLVKFKLPFLPISD
The normalized value in BLU units [1]: 974.1 BLU

KLVLRNVPILPILN
The normalized value in BLU units [2]: 303.3 BLU

KLWDLSKPSKPLKE
The normalized value in BLU units (SPOT analysis, Myo5 SH3) [3]: 233.1 BLU

KLYYRHRPQKPVRT
The normalized value in BLU units [2]: 915.7 BLU

KMAKKLLPYKPHNS
The normalized value in BLU units (SPOT analysis, Myo5 SH3) [4]: 707.5 BLU

KMSAKNTPKHPVDI
The normalized value in BLU units (SPOT analysis, Myo5 SH3) [4]: 307.2 BLU

KNIIKYVPWGPPLE
The normalized value in BLU units [1]: 164.4 BLU

KNILKVCPVLPSIL
The normalized value in BLU units (SPOT analysis, Myo5 SH3) [4]: 117.9 BLU

KNLKKYDPEDPNRR
The normalized value in BLU units [2]: 207.1 BLU

KNLLREIPQVPAFQ
The normalized value in BLU units (SPOT analysis, Myo5 SH3) [4]: 104.1 BLU

KNPTKSPPPPPSPS
The normalized value in BLU units (SPOT analysis, Myo5 SH3) [4]: 27847.4 BLU

KPAGRPIPPAPTHY
The normalized value in BLU units (SPOT analysis, Myo5 SH3) [4]: 189.4 BLU

KPAVLHYPPIPASA
The normalized value in BLU units (SPOT analysis, Myo5 SH3) [3]: 183.1 BLU

KPKMLPIPSKPTLF
The normalized value in BLU units [1]: 1355.0 BLU

KPKVLFHPHWPLYI
The normalized value in BLU units [1]: 195.5 BLU

KPLKFLRPTYPDLC
The normalized value in BLU units [1]: 149.2 BLU

KPLNLSKPISPPPS
The normalized value in BLU units [1]: 254.3 BLU

KPMLHNVPHDPSLP
The normalized value in BLU units [1]: 412.6 BLU

KPPSYPSPAQPPKS
The normalized value in BLU units (SPOT analysis, Myo5 SH3) [3]: 11899.6 BLU

KPPSYPSPVQPPQS
The normalized value in BLU units (SPOT analysis, Myo5 SH3) [3]: 16459.5 BLU

KPPVYRLPPLPRLK
The normalized value in BLU units [1]: 2305.8 BLU

KPSGYYGPNSPLKL
The normalized value in BLU units [1]: 159.2 BLU

KPSLWEAPQNPPYS
The normalized value in BLU units [1]: 152.4 BLU

KPSVMKLPPSPKQP
The normalized value in BLU units (SPOT analysis, Myo5 SH3) [3]: 380.5 BLU

KQAKRAPPSSPYVV
The normalized value in BLU units (SPOT analysis, Myo5 SH3) [4]: 295.0 BLU

KQKKKPTPTRPYNY
The normalized value in BLU units [2]: 516.2 BLU

KQLKKQGPKRPSSA
The normalized value in BLU units [1]: 468.1 BLU

KQLMKNLPKIPLLN
The normalized value in BLU units [2]: 580.1 BLU

KQRIRKIPGIPLMS
The normalized value in BLU units (SPOT analysis, Myo5 SH3) [4]: 621.8 BLU

KQSKRARPSSPYTV
The normalized value in BLU units (SPOT analysis, Myo5 SH3) [4]: 271.3 BLU

KRKAKAPPPPPPPP
The normalized value in BLU units (SPOT analysis, Myo5 SH3) [4]: 4025.3 BLU
